Results from patent publication US12552732B2, “Cyclopropanated sandalwood type compounds” (Symrise AG, priority 2020, dated 2026).

Experiments:
[1] = Chemical stability in citric acid-based cleaner pH 2 (SPME GC-MS); format: physicochemical; settings: for acid-stability compared with Javanol: 0.3% in citric acid-based cleaner pH 2, 14 days, 6, 22, 40 and 50 °C, versus fresh sample
Method: In order to analyse the stability of the inventive compounds, different samples each containing 0.3% of either compound 3a, compound 3b or Javanol® (Givaudan), respectively, in a citric acid-based cleaner having a pH of 2 were analysed, i.e., the stability test was carried out using a representative acidic cleaner (pH=2) in which the corresponding fragrance compounds were incorporated in an amount of 0.3% relative to the acidic cleaner.
The stability was analysed via solid-phase microextraction (SPME) and coupled gas chromatography-mass spectrometry (GC-MS) by using a combination of polydimethylsiloxane and divinylbenzene as SPME fibre coating (PDMS/DVB fibre) and a polydimethylsiloxane-based DB-1 column for gas chromatography (100% polydimethylsiloxane) for each sample containing one of the fragrance compounds as indicated above. The stability was tested for various samples after 14 days of acidic treatment at different storage temperatures (6° C., 22° C., 40° C. and 50° C.) in comparison to a freshly prepared sample as reference (see FIGURE).

[2] = Odour detection threshold (ODT), olfactometer TO8, expert panel, DIN EN 13725; settings: for ODT (odour detection threshold): olfactometer TO8, panel of at least four experts
Source text: The odour detection threshold is defined as the lowest concentration of a certain odorous compound (gaseous and sensorially active substance) which is perceivable and thus which can be distinguished with certainty from a blank reference under standard conditions. Generally, lower ODT values are preferred as a lower amount of the corresponding fragrance compound is required in order to a achieve an intense odour impressions and thus overall lower amounts can be used for perfuming. However, as the threshold depends on various factors such as concentration, solubility, partition coefficient between air and the olfactory active substance, vapor pressure and the like, predictions referring to the ODT of a substance, i.e. a fragrance material are difficult to make. The ODT was measured using an olfactometer TO8 and a panel of at least four experts according to DIN standard EN 13725.

| Structure (SMILES) | acid-stability compared with Javanol [1] | acid-stability at 22 °C ([1]; 0.3% in citric acid-based cleaner pH 2, 14 days, 22 °C) | ODT (odour detection threshold) [2] | factor by which threshold value is lower than Javanol ([2]; ODT compared with Javanol (Givaudan)) | decomposition at 50 °C ([1]; 0.3% in citric acid-based cleaner pH 2, 14 days, 50 °C) | decomposition at moderate temperatures ([1]; 0.3% in citric acid-based cleaner pH 2, 14 days, moderate temperatures) | chemical stability under acidic conditions ([1]; acidic conditions, general statement) |
| --- | --- | --- | --- | --- | --- | --- | --- |
| CCC(CO)C1CC1C1CC2CC2(C)C1(C)C (stereo not shown) [Compound 3a, 2-[2-(1,2,2-trimethyl-3-bicyclo[3.1.0]hexanyl)cyclopropyl]butan-1-ol] | better acid-stability over the whole temperature range | Best stabilities | 0.000244 ppm (v/v) | – | – | – | – |
| CC(CO)C1CC1C1CC2CC2(C)C1(C)C (stereo not shown) [Compound 3b, 2-[2-(1,2,2-trimethyl-3-bicyclo[3.1.0]hexanyl)cyclo-propyl]propan-1-ol] | better acid-stability over the whole temperature range | – | 0.0000165 ppm (v/v) | about 6.5 | – | – | – |
| CC1(CO)CC1CC1CC2CC2(C)C1(C)C (stereo not shown) [Javanol®, [1-methyl-2-[(1,2,2-trimethyl-3-bicyclo[3.1.0]hexanyl)methyl]cyclo-propyl]methanol, reference compound] | – | – | 0.000104 ppm (v/v) | – | fully decomposes | seems to decompose quickly even at moderate temperatures | not chemically stable under acidic conditions |
